Measured values from ChEMBL document CHEMBL3885881, “DrugMatrix”.

Species on record: Rattus norvegicus
Experiment: DrugMatrix - Regimen: Daily Repeat
Type: toxicity, organism-based, Sprague-Dawley
Design: regimen Daily Repeat, gender Male, age 6-8 weeks
Conditions: in vivo, po, route oral GAVAGE, vehicle .5 % CMC; for BASOPHIL / EOSINOPHIL / ERYTHROCYTE COUNT / HEMATOCRIT / HEMOGLOBIN / LEUKOCYTE COUNT / LYMPHOCYTE / MEAN CORPUSCULAR HEMOGLOBIN / MEAN CORPUSCULAR HEMOGLOBIN CONCENTRATION / MEAN CORPUSCULAR VOLUME / MONOCYTE / NEUTROPHIL / PLATELET COUNT: tissue Blood; for ALANINE AMINOTRANSFERASE / ALBUMIN / ALKALINE PHOSPHATASE / ASPARTATE AMINOTRANSFERASE / BLOOD UREA NITROGEN / CHLORIDE / CHOLESTEROL / CREATINE PHOSPHOKINASE / CREATININE / GLUCOSE / PHOSPHORUS / POTASSIUM / SODIUM / TOTAL BILIRUBIN / TOTAL PROTEIN: tissue Plasma
[1] = 0 mg/kg, 72 h, dose level Control, time 3 day
[2] = 0 mg/kg, 120 h, dose level Control, time 5 day
[3] = 32 mg/kg, 72 h, dose level Low, time 3 day
[4] = 32 mg/kg, 120 h, dose level Low, time 5 day

CC[C@H]1OC(=O)[C@H](C)[C@@H](O[C@H]2C[C@@](C)(OC)[C@@H](O)[C@H](C)O2)[C@H](C)[C@@H](O[C@@H]2O[C@H](C)C[C@H](N(C)C)[C@H]2O)[C@](C)(O)C[C@@H](C)/C(=N\OCOCCOC)[C@H](C)[C@@H](O)[C@]1(C)O [ROXITHROMYCIN]
BASOPHIL [1]: 1.52%
EOSINOPHIL [1]: 0.98%
ERYTHROCYTE COUNT [1]: 6.96 x10E6/uL
HEMATOCRIT [1]: 44.65%
HEMOGLOBIN [1]: 13.62 G/DL
LEUKOCYTE COUNT [1]: 9.83 x10E3/uL
LYMPHOCYTE [1]: 76.48%
MEAN CORPUSCULAR HEMOGLOBIN [1]: 19.57 pg
MEAN CORPUSCULAR HEMOGLOBIN CONCENTRATION [1]: 30.47 G/DL
MEAN CORPUSCULAR VOLUME [1]: 64.22 fL
MONOCYTE [1]: 2.13%
NEUTROPHIL [1]: 18.6%
PLATELET COUNT [1]: 1217.17 x10E3/uL
ALANINE AMINOTRANSFERASE [1]: 41 u/L
ALBUMIN [1]: 3.77 G/DL
ALKALINE PHOSPHATASE [1]: 411.83 u/L
ASPARTATE AMINOTRANSFERASE [1]: 62.83 u/L
BLOOD UREA NITROGEN [1]: 15.17 mg/dL
CHLORIDE [1]: 104.33 MEQ/L
CHOLESTEROL [1]: 71.17 mg/dL
CREATINE PHOSPHOKINASE [1]: 123.5 u/L
CREATININE [1]: 0.55 mg/dL
GLUCOSE [1]: 182.67 mg/dL
PHOSPHORUS [1]: 11.23 mg/dL
POTASSIUM [1]: 7.03 MEQ/L
SODIUM [1]: 148 MEQ/L
TOTAL BILIRUBIN [1]: 0.57 mg/dL
TOTAL PROTEIN [1]: 6.85 G/DL
BASOPHIL [2]: 1.35%
EOSINOPHIL [2]: 0.43%
ERYTHROCYTE COUNT [2]: 6.96 x10E6/uL
HEMATOCRIT [2]: 44.35%
HEMOGLOBIN [2]: 13.98 G/DL
LEUKOCYTE COUNT [2]: 9.45 x10E3/uL
LYMPHOCYTE [2]: 80.83%
MEAN CORPUSCULAR HEMOGLOBIN [2]: 20.1 pg
MEAN CORPUSCULAR HEMOGLOBIN CONCENTRATION [2]: 31.52 G/DL
MEAN CORPUSCULAR VOLUME [2]: 63.72 fL
MONOCYTE [2]: 2.37%
NEUTROPHIL [2]: 14.05%
PLATELET COUNT [2]: 1298 x10E3/uL
ALANINE AMINOTRANSFERASE [2]: 42.17 u/L
ALBUMIN [2]: 3.77 G/DL
ALKALINE PHOSPHATASE [2]: 419 u/L
ASPARTATE AMINOTRANSFERASE [2]: 66.67 u/L
BLOOD UREA NITROGEN [2]: 16.67 mg/dL
CHLORIDE [2]: 103.17 MEQ/L
CHOLESTEROL [2]: 66.33 mg/dL
CREATINE PHOSPHOKINASE [2]: 148.33 u/L
CREATININE [2]: 0.58 mg/dL
GLUCOSE [2]: 196.83 mg/dL
PHOSPHORUS [2]: 11.8 mg/dL
POTASSIUM [2]: 6.47 MEQ/L
SODIUM [2]: 148.33 MEQ/L
TOTAL BILIRUBIN [2]: 0.53 mg/dL
TOTAL PROTEIN [2]: 6.77 G/DL
BASOPHIL [3]: 1.33%
EOSINOPHIL [3]: 0.27%
ERYTHROCYTE COUNT [3]: 7.39 x10E6/uL
HEMATOCRIT [3]: 47.23%
HEMOGLOBIN [3]: 14.73 G/DL
LEUKOCYTE COUNT [3]: 12.3 x10E3/uL
LYMPHOCYTE [3]: 88.63%
MEAN CORPUSCULAR HEMOGLOBIN [3]: 19.9 pg
MEAN CORPUSCULAR HEMOGLOBIN CONCENTRATION [3]: 31.13 G/DL
MEAN CORPUSCULAR VOLUME [3]: 63.97 fL
MONOCYTE [3]: 1.7%
NEUTROPHIL [3]: 7.6%
PLATELET COUNT [3]: 1462 x10E3/uL
ALANINE AMINOTRANSFERASE [3]: 37.67 u/L
ALBUMIN [3]: 3.7 G/DL
ALKALINE PHOSPHATASE [3]: 340.33 u/L
ASPARTATE AMINOTRANSFERASE [3]: 58.33 u/L
BLOOD UREA NITROGEN [3]: 12.33 mg/dL
CHLORIDE [3]: 104.67 MEQ/L
CHOLESTEROL [3]: 59.67 mg/dL
CREATINE PHOSPHOKINASE [3]: 128 u/L
CREATININE [3]: 0.57 mg/dL
GLUCOSE [3]: 224 mg/dL
PHOSPHORUS [3]: 13.23 mg/dL
POTASSIUM [3]: 6.93 MEQ/L
SODIUM [3]: 148.67 MEQ/L
TOTAL BILIRUBIN [3]: 0.4 mg/dL
TOTAL PROTEIN [3]: 6.7 G/DL
BASOPHIL [4]: 1.4%
EOSINOPHIL [4]: 0.3%
ERYTHROCYTE COUNT [4]: 7.37 x10E6/uL
HEMATOCRIT [4]: 44.93%
HEMOGLOBIN [4]: 14.13 G/DL
LEUKOCYTE COUNT [4]: 11.7 x10E3/uL
LYMPHOCYTE [4]: 81.47%
MEAN CORPUSCULAR HEMOGLOBIN [4]: 19.27 pg
MEAN CORPUSCULAR HEMOGLOBIN CONCENTRATION [4]: 31.5 G/DL
MEAN CORPUSCULAR VOLUME [4]: 61.2 fL
MONOCYTE [4]: 2.4%
NEUTROPHIL [4]: 13.53%
PLATELET COUNT [4]: 1353.33 x10E3/uL
ALANINE AMINOTRANSFERASE [4]: 35.67 u/L
ALBUMIN [4]: 3.57 G/DL
ALKALINE PHOSPHATASE [4]: 391.67 u/L
ASPARTATE AMINOTRANSFERASE [4]: 57.67 u/L
BLOOD UREA NITROGEN [4]: 12.67 mg/dL
CHLORIDE [4]: 103 MEQ/L
CHOLESTEROL [4]: 66.33 mg/dL
CREATINE PHOSPHOKINASE [4]: 131.67 u/L
CREATININE [4]: 0.57 mg/dL
GLUCOSE [4]: 185.67 mg/dL
PHOSPHORUS [4]: 12.77 mg/dL
POTASSIUM [4]: 6.73 MEQ/L
SODIUM [4]: 148.33 MEQ/L
TOTAL BILIRUBIN [4]: 0.3 mg/dL
TOTAL PROTEIN [4]: 6.23 G/DL
